Reference: paper PMC12621569 (Antiviral research, 2025)
Like-named read-outs stand apart in the source and are kept apart here.

Experiments:
[1] = test system: influenza B virus infections; conditions: human, in vivo; cited from earlier work
B/Victoria viruses = type: cell-based, influenza B/Victoria lineage virus
A(H1N1)pdm09 viruses = type: cell-based, influenza A(H1N1)pdm09 virus; conditions: read-out: Median EC50
A(H3N2) viruses = type: cell-based, influenza A(H3N2) virus; conditions: read-out: Median EC50
type A viruses = conditions: cited from earlier work
[2] = test system: type B versus type A viruses; conditions: cited from earlier work
[3] = target: B/Victoria neuraminidase (NA); type: biochemical, influenza B/Victoria lineage virus
[4] = target: A (H3N2) neuraminidase (NA) (Influenza A virus (H3N2), UniProt V9SU56); type: biochemical
[5] = target: A (H1N1)pdm09 neuraminidase (NA); type: biochemical, influenza A (H1N1)pdm09 virus; conditions: read-out: IC50 Median

Q: For `O=C1c2c(O)c(=O)ccn2N([C@@H]2c3ccccc3SCc3c2ccc(F)c3F)[C@@H]2COCCN12` [Baloxavir, baloxavir], which effectiveness in treatment [1] is on record?
A: more effective than oseltamivir

Q: And the “median EC50 for B/Victoria viruses, fold higher than influenza A subtypes” value (B/Victoria viruses)?
A: 5–7 fold

Q: And the EC50 (B/Victoria viruses; read-out: Median EC50)?
A: 4.06 nM

Q: And the EC50 (A(H1N1)pdm09 viruses)?
A: 0.8 nM

Q: What about the EC50 (A(H3N2) viruses) of the same compound?
A: 0.58 nM

Q: What about the “elevated baloxavir EC50” value (type A viruses) of the same compound?
A: • Treatment-emergent • Rarely as natural polymorphisms • Confer elevated baloxavir EC50 (4–112-fold)

Q: What does the source list for `CCOC(=O)C1=C[C@@H](OC(CC)CC)[C@H](NC(C)=O)[C@@H](N)C1` [Oseltamivir, oseltamivir]?
A: lower activity against type B versus type A viruses [2]: 47- to 80 fold; clinical effects against influenza B compared to influenza A virus infections [1]: reduced effects

Q: With `CCC(CC)[C@H](NC(C)=O)[C@@H]1[C@H](O)[C@@H](C(=O)O)C[C@H]1N=C(N)N` [Peramivir, peramivir] as the compound, how does the IC50 ([3]; read-out: IC50 Mean ± SD) read?
A: 0.35 ± 0.11 nM

Q: And the IC50 ([3]; read-out: IC50 Median)?
A: 0.33 nM

Q: What about the IC50 ([3]; read-out: IC50 Range) of the same compound?
A: 0.14 to 0.88 nM

Q: And the IC50 ([4]; read-out: IC50 Mean ± SD)?
A: 0.09 ± 0.02 nM

Q: What about the IC50 ([4]; read-out: IC50 Median) of the same compound?
A: 0.08 nM

Q: What about the IC50 ([4]; read-out: IC50 Range) of the same compound?
A: 0.05 to 0.25 nM

Q: What about the IC50 [5] of the same compound?
A: 0.07 nM
